From patent US11173173B2, “Methods for treating chemoresistant cancer-initiating cells” (UNIVERSITY OF CONNECTICUT, priority 2015, dated 2021) come the findings set out here.

For assay [1], the target named is T1, EGFP-AKT and mCherry-β-catenin (Mus musculus, UniProt Q02248).
T1 construct: host or cells: 293T cells
T1 sequence (Q02248 1-781): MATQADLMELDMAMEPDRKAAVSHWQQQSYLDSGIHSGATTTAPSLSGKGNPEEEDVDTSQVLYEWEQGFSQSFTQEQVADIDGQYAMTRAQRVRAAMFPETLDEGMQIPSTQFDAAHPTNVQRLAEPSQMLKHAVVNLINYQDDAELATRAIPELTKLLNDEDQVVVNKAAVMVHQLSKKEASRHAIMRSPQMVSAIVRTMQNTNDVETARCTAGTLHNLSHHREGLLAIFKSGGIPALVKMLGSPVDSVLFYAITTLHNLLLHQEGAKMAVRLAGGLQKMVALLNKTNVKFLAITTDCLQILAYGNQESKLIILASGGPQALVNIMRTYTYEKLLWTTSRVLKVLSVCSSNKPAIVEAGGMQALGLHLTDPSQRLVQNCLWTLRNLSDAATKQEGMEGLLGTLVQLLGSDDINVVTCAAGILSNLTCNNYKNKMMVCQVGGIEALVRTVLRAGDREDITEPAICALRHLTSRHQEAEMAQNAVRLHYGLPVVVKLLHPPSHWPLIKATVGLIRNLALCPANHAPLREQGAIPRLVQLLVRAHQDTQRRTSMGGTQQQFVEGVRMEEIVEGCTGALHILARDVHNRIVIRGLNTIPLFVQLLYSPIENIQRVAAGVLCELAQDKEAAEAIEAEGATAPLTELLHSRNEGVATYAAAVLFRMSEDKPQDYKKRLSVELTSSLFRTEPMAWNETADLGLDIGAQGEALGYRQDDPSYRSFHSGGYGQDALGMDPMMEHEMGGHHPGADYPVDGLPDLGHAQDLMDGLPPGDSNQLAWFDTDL
Briefly: FRET assay (acceptor photobleaching) of Akt/β-catenin interaction in 293T cells. The note with it: 25, 50, 100, 200 nM; vehicle 2.24%. Format: cell-based. The method, then:
FRET measurement was performed by using the acceptor photobleaching method. […] A Perkin-Elmer Ultraview spinning disc system with a CSU-X1 Yokogawa disc was used for imaging. A 40X 1.2 NA Plan-apochromatic objective was used, and emission was collected onto a C9100 Hamamatsu Photonics EM-CCD. EGFP was excited with a 488 nm laser, and emission was collected through a 500-555 nm band pass filter. mCherry was illuminated, and photobleached, with a 561 nm laser. Emission of mCherry was collected with a 580-650 nm band pass filter. 6 images of EGFP were acquired before and 8 images after bleaching of the mCherry with intense 561 nm light. After subtraction of camera background, the average intensity of EGFP in a region of interest spanning the bleached cell was determined in the 4 images before acceptor bleach (I1), or the 4 images after acceptor bleach (I2). FRET efficiency is reported as 1−(I1/I2). Calculations were based on >500 cell images.
To test whether DXR could block interaction between Akt and β-catenin, Fluorescence Resonance Energy Transfer (FRET) analysis using EGFP-AKT and mCherry-β-catenin transfected cells was performed.

The test system of assay [2] is T-ALL blast cells, LSCs and HSPCs of leukemic Pten:β-cat^Act mice. Briefly: Flow cytometry of BM of treated leukemic mice (blast cells, LSCs, HSPCs). Format: in vivo, mouse. The note with it: 10 days post-treatment. The method, then:
Leukemic mice were treated with vehicle, chemotherapy, [Low]DXR or chemotherapy+[Low]DXR as described in FIG. 3a. a-c, At 10 days post-treatment, BM was analyzed by flow cytometry to determine frequency of blast cells (a), LSCs (b) and HSPCs (c). Shown are representative plots. d, Average frequency±SD of each population from a-c (n≥6 per group). e, Limiting-dilution assays to determine CRU frequency were performed on blast cells and LSCs sorted from chemotherapy treated leukemic mice and on HSPCs sorted from [Low]DXR treated mice. Engraftment 1% blast cells) was determined in NSG recipients at 10-12 weeks post-transplant.
Whole bone marrow was isolated from uninduced HSC-SCL-Cre^+ Pten^fx/fx βcat^fx(Exon3)/+ (Pten:β-cat^Act) mice and combined with an equal portion of Cre negative bone marrow from a littermate and transplanted into irradiated (10 Gy) B6.SJL-Ptprc^a Pepc^b/BoyJ (Ptprc) recipients.
Chemotherapy consisted of Nelarabine (Selleck) and Dexamethasone (BioVision) administered daily for 5 days consecutively. 43.4 mg/ml Nelarabine was administered intravenously via the tail vain according to the formula: Body Weight (g)×5=volume to inject (μl), which yielded 217 mg/kg. 2.5 mg/ml Dexamethasone was injected intraperitoneally according to the formula: Body Weight (g)×4=volume to inject (μl), yielding 10 mg/kg. […] [Low]NanoDXR (also referred to as [Low]NanoDoxo throughout) treatment used doxorubicin nanoparticles as described in International Patent Publication WO 2015/054269 (incorporated by reference in its entirety) administered as a single IV injection once per week on day 1 relative to above treatments using 0.8 mg/kg. Maintenance [Low]NanoDXR consisted of once per week injections of 0.4 mg/kg. Groups combining Nelarabine with Doxorubicin used a single injection containing both drugs. All drugs were solubilized in 45% (2-Hydroxypropyl)-β-cyclodextrin (HBC).
Cells were collected from bone marrow (femur and tibia), spleen, peripheral blood, and thymus. For cell surface phenotyping, a lineage cocktail (Lin) was used including CD3 (for HSPC but not LSC analysis), CD4, CD8, Mac-1, Gr1, B220, IgM, and Ter119 (eBioscience, San Diego, Calif.). Monoclonal antibodies against CD3 (separate fluorophore for LSC analysis), Sca-1, c-Kit, CD45.1, and CD45.2 were also used where indicated. Cell sorting and analysis were performed using an inFlux (BD), MoFlo (Dako, Ft. Collins, Colo.) and/or CyAn ADP (Dako, Ft. Collins, Colo.). Data analysis was performed using FlowJo software (Ashland, Oreg.).
For orientation: In flow cytometry, cells or beads pass a laser one at a time.

In assay [3] the test system is LSCs and HSPCs of leukemic Pten:β-catAct mice. The assay is described as follows: Example 6: LSCs and HSPCs in BM of leukemic mice, Doxo vs NanoDoxo vs Doxil with chemotherapy. The note with it: Doxo 0.5 mg/kg x5 daily, NanoDoxo or Doxil single 0.8 mg/kg, BM 5-6 days after treatment. Format: in vivo, mouse. The text has this:
All drugs were solubilized in 45% (2-Hydroxypropyl)-β-cyclodextrin (HBC).

The test system of assay [4] is tumorigenic cells (functional LSCs) in BM of treated leukemic mice. The assay is described as follows: Tumorigenic assay: BM of treated leukemic mice transplanted into NSG recipients. Format: in vivo, mouse.
Procedure: At 12 days post-treatment, BM was harvested from treated mice and transplanted into sub-lethally irradiated NSG recipients. a, Treatment schematic and Kaplan-Meier curves of recipient mice. b, Recipients of BM from [Low]DXR only treated leukemic mice were analyzed by flow cytometry at 6 months post-transplant. […] Dashed line indicates day of final [Low]nanoDXR treatment. f, Surviving [Low]nanoDXR treated mice were analyzed by flow cytometry at 230 days post-treatment.
At 12 days post-treatment, BM was harvested from treated mice and transplanted into sub-lethally irradiated NSG recipients. a, Treatment schematic and Kaplan-Meier curves of recipient mice.
Tumorigenic assays were performed by transplanting 0.5, 1.5, or 4.5×10^4 bone marrow cells from treated mice at 12 days post-treatment into 3.25 Gy irradiated NSG recipient mice. 10 recipients were used for each dose from each group. One male and one female donor was used for each group. Leukemia was assessed in mice euthanized due to poor health by analyzing CD45^Hi CD3^+ cell frequency. Mice having >20% Blasts in the bone marrow were considered leukemic.
A cohort of mice was established as in FIG. 3a. One week after completion of treatment with vehicle, chemotherapy, [Low]DXR, or chemotherapy+[Low]DXR, we transplanted BM from treated mice into irradiated NSG recipients to test for tumorigenic cells.

`COc1cccc2c1C(=O)c1c(O)c3c(c(O)c1C2=O)C[C@@](O)(C(=O)CO)C[C@@H]3O[C@H]1C[C@H](N)[C@H](O)[C@H](C)O1` [DXR, doxorubicin]: in assay [1], the “FRET efficiency between EGFP-AKT and mCherry-β-catenin” value is “decreased with increasing concentrations of DXR”. The “LSC reduction, free DXR 5 doses of 0.15 μg/g” value in assay [2] (5 daily injections 0.15 μg/g) is reported as “ineffective”. In addition, in assay [2] ([Low]DXR 0.5 mg/kg daily x5), the “HSPCs in BM vs vehicle” value is “allowed significant recovery of HSPCs”, the “LSCs in BM vs vehicle” value is “significantly reduced LSCs compared to vehicle” and the “blast cells in BM vs vehicle” value is given as “did not significantly reduce blast cells”. Moreover, in assay [2] ([Low]DXR with Dexa.), the “blast cells in BM, [Low]DXR in combination with dexamethasone” value was “does not act as a traditional chemotherapeutic”. Besides, in assay [2] (normal dose DXR (8x higher than [Low]) with Dexa.), the “blast cells in BM, clinical equivalent (normal) dose DXR” value was “acted similar to chemotherapy in their reduction”. For the same compound, in assay [3], the “HSPC recovery in BM” value is reported as “facilitates recovery of HSPCs” and the “LSCs in BM” value is “prevents this expansion”. The “blast cells, LSCs and HSPCs in surviving recipients” value in assay [4] (6 months post-transplant) is “only trace levels of blast cells and LSCs, and HSPCs were within normal parameters”. For the same compound, the “recipients remaining healthy nearly 6 months post-transplant” value in assay [4] (recipients of BM from treated leukemic mice) is reported as 29/30.
